Test results as given in ChEMBL document CHEMBL2086334, “Fluorogenic assay of alkaline phosphatase activity based on the modulation of excited-state intramolecular proton transfer” (Bioorg Med Chem Lett, 2012).
Calls of active or inactive are those of the source. The calls are words filed in the database; no cut-off is given here.

Columns and labels:
[1] = Activity of alkaline phosphatase assessed as compound hydrolysis at 20 uM assessed as increase in fluorescence intensity every 1 min for 10 mins by fluorescence spectrophotometry relative to control
[2] = Activity of alkaline phosphatase assessed as compound hydrolysis at 20 uM at 0.1 to 50 nM enzyme concentration measured every 1 min for 10 mins by fluorescence spectrophotometry
[3] = Activity of levamisole-pretreated alkaline phosphatase assessed as compound hydrolysis at 20 uM measured every 0.5 mins for 10 mins by fluorescence spectrophotometry
[4] = Activity of alkaline phosphatase assessed as compound hydrolysis assessed as increase in fluorescence intensity measured every 30 secs for 10 mins by Lineweaver-Burk plot analysis
[5] = Inhibition of alkaline phosphatase

Row | fold change (FC) [1] | Activity [2] | Activity [3] | Km [4] | kcat [4] | IC50 [5] | SMILES
1 | 455 | Active | inactive | 1.9 µM | 0.09 s⁻¹ | – | O=P(O)(O)Oc1ccccc1-c1nc(-c2ccccc2)cs1
2 | – | – | – | – | – | 13.3 µM | c1ccc([C@H]2CN3CCSC3=N2)cc1 [LEVAMISOLE]
